Experiment in all cases: NCI tumour cell line growth inhibition, 48 h
The subject of experiment [1] is LXFL 529 NSCLC.
The test system of experiment [2] is M19-MEL melanoma.
The subject of experiment [3] is SNB-78 CNS.
Experiment [4] concerns XF 498 CNS.
Experiment [5] has as its system RXF-631 renal.
For experiment [6], the system named is HS 578T breast.
Experiment [7] concerns MCF7 breast.
Experiment [8] deals with MDA-N.
Experiment [9] concerns T-47D breast.

Where “and” joins values, the source holds several entries; their conditions need not be identical. Equal entries are not always repeated.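 Five concentrations, 48 hours, 96-well plates. Abbreviation: GI50, concentration required for 50% inhibition of growth. At the TGI there is no net growth.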

Take `O=C(O)C1=C(C(=O)Nc2ccc(NC(=O)C3=C(C(=O)O)C4C=CC3C4)cc2)C2C=CC1C2`: the TGI in experiment [1], in experiment [2], in experiment [3] and in experiment [4] was above 100 µM throughout.

Turning to `O=[N+]([O-])c1cccc(C2=NOC3C4CCC(C4)C23)c1` (configuration not stated), the TGI in experiment [1], in experiment [2] and in experiment [5] was above 100 µM each time.

Take `Cc1ccccc1-n1c(C)nc(-c2ccccc2)cc1=O`: the TGI in [1], in experiment [2], in [5] and in experiment [3] was above 100 µM in each case.

Take `N#CC1=C(Cl)NC(Cl)=C(C#N)C1c1c(Cl)cccc1Cl`: the values for the TGI in experiment [1], in experiment [3] and in [4] were above 100 µM, above 100 µM and 35.5 µM, respectively.

Take `O=C(O)c1ccccc1NC(=O)C1CCCCC1`: the TGI in experiment [1], in [2], in [5], in [3] and in [4] was above 100 µM throughout.

As to `CCC(Oc1ccc(OC)c2ccccc(=O)c12)C(=O)O` (configuration not stated), the TGI in experiment [1], in [2], in experiment [5] and in experiment [3] was above 100 µM in each case.

In the case of `COC(=O)C1=CC2OC1(C)CCC2=O` (configuration not stated), the TGI in experiment [1] and in experiment [4] was above 100 µM each time.

On to `[Cl][Cd][Cl]`, for which the GI50 in experiment [6] is 10.1 µM; in [1], 13.3 µM; in [2], 11.2 µM; in experiment [7] it was 9.11 µM; in [8], 4.61 µM and 8.24 µM; in experiment [5], 38.8 µM. Further, the GI50 in [3] was 21.3 µM; in [9], 9.63 µM; in experiment [4] it was 23.4 µM. Further, the TGI in experiment [6] is 57.4 µM; in experiment [1], 28.4 µM; in experiment [2] it was 24.1 µM; in [7], 19.2 µM; in experiment [8], 21.4 µM; in [5], above 88.9 µM. In addition, the TGI in experiment [3] came out at 56.9 µM; in [9], 19.5 µM; in experiment [4], 43.1 µM.

In the case of `NCCSCCc1ccccc1`, the TGI in [6], in experiment [7], in experiment [8] and in [9] was above 100 µM each time.

Regarding `Cc1cccc2nc3cccc(C(=O)NCCN(C)C)c3nc12`, the results for the TGI in experiment [2] and in experiment [3] were 3.25 µM and 12 µM, respectively.

For the molecule `COc1ccc2c(c1OC)C(=O)c1cnccc1C2=O`, the TGI in [1], in experiment [2], in [5], in experiment [3] and in [4] was above 100 µM throughout.

Regarding `CCC(=O)N/N=C(\C=C\c1cccc(O)c1)c1sc(Nc2ccc(C)cc2[N+](=O)[O-])nc1C`, the TGI in [1], in experiment [2] and in experiment [3] was above 100 µM in each case.

With `CC(C)c1cc(OCC(O)CO)cc(C(C)C)c1` (configuration not stated), the TGI in experiment [1], in [2], in experiment [3] and in experiment [4] was above 100 µM throughout.

Consider `O=C(Nc1ccc(Cl)c(Cl)c1)OCCN1c2ccccc2Sc2ccccc21`, for which the TGI in experiment [6], in experiment [7], in [8] and in experiment [9] was above 10 µM each time.

With `Cc1cc(Cl)ccc1C1OC(=O)c2c1ccc1ccccc21` (configuration not stated), the TGI in experiment [1], in experiment [2] and in experiment [4] was above 100 µM throughout.

Consider `CN1C(Cl)=NS(=O)(=O)c2ccccc21`, for which the TGI in [6], in [7], in experiment [8] and in experiment [9] was above 100 µM in each case.

Turning to `O=C1NC(=O)C2C1N(Cc1ccccc1)C(=O)N2Cc1ccccc1` (configuration not stated), the TGI in [1], in experiment [2], in experiment [5], in [3] and in experiment [4] was above 100 µM in each case.

For `O=C1C=CC(CC(=O)c2ccc3ccccc3c2)O1` (configuration not stated), the TGI in experiment [1] is 32.3 µM; in experiment [2] it was above 100 µM; in experiment [3], above 100 µM; in experiment [4] it was above 100 µM.

Turning to `Nc1n[nH]c(CCc2nc(N)n[nH]2)n1`, the TGI in [1], in [2], in experiment [5] and in experiment [3] was above 100 µM throughout.

Turning to `O=C(/C=C1/Nc2ccc([N+](=O)[O-])cc2NC1O)c1cccc([N+](=O)[O-])c1` (configuration not stated), the TGI in experiment [1], in [2], in experiment [3] and in experiment [4] was above 100 µM throughout.

`O=C(Nc1ccn(CCI)c(=O)n1)c1ccccc1`: the TGI in [1], in experiment [2] and in experiment [3] was above 100 µM in each case.

On to `CC1=C(/C=C/C(C)=C/C=C/C(C)=C/CO)C(C)(C)CCC1`, for which the TGI in [8] is above 100 µM; in experiment [9], 96.2 µM.

For the molecule `Cc1cccc(Nc2cnc(N)nc2N)c1`, the TGI in [7], in experiment [8] and in experiment [9] was above 100 µM each time.

Turning to `Cc1cc2c(C)n(Cc3ccc(Cl)cc3Cl)nc2c(C(=O)O)c1C`, the TGI in experiment [1], in [2], in [5], in experiment [3] and in experiment [4] was above 100 µM throughout.

Source of the values: PubChem BioAssay (NCI).
